From ChEMBL document CHEMBL3526121, “Pharmacokinetics, bioavailability, tissue distribution, excretion, and metabolite identification of methoxyflavones in Kaempferia parviflora extract in rats” (Drug Metab Dispos, 2012)
One block for each compound: values may come before it.

Key:
[1] = Drug metabolism in Wistar rat urine/feces treated with 750 mg/kg, po of 3,5,7,4'-tetramethoxyflavone by LC-MS and LC-MS/MS analysis; format: ADME, organism-based; design: dose 750 mg/kg, route oral; conditions: in vivo
[2] = Drug excretion in Wistar rat urine at 750 mg/kg, po after 12 hrs by HPLC-UV analysis; format: ADME, organism-based; design: dose 750 mg/kg, route oral; conditions: in vivo
[3] = Drug excretion in Wistar rat feces at 750 mg/kg, po after 12 hrs by HPLC-UV analysis; format: ADME, organism-based; design: dose 750 mg/kg, route oral; conditions: in vivo
[4] = Drug metabolism in Wistar rat urine/feces treated with 750 mg/kg, po of 3,5,7,3',4'-pentamethoxyflavone by LC-MS and LC-MS/MS analysis; format: ADME, organism-based; design: dose 750 mg/kg, route oral; conditions: in vivo
[5] = Drug metabolism in Wistar rat urine/feces treated with 750 mg/kg, po of 5,7,4'-trimethoxyflavone by LC-MS and LC-MS/MS analysis; format: ADME, organism-based; design: dose 750 mg/kg, route oral; conditions: in vivo
[6] = AUC in Wistar rat at 250 mg/kg, iv by HPLC analysis; format: ADME, organism-based; design: dose 250 mg/kg, route intravenous; conditions: plasma
Brain = assay: AUC (0.083 to 4 hrs) in Wistar rat brain at 750 mg/kg, po by LC-MS/MS analysis; format: ADME, organism-based; design: time 0.083-4 hr, dose 750 mg/kg, route oral; conditions: in vivo
Rattus norvegicus [7] = assay: Volume of distribution in Wistar rat at 250 mg/kg, po by HPLC analysis; format: ADME, organism-based; design: dose 250 mg/kg, route oral; conditions: in vivo
[8] = Tmax in Wistar rat at 250 mg/kg, po by HPLC analysis; format: ADME, organism-based; design: dose 250 mg/kg, route oral; conditions: in vivo
[9] = Tmax in Wistar rat testes at 750 mg/kg, po by LC-MS/MS analysis; format: ADME, organism-based, Testis; design: dose 750 mg/kg, route oral
[10] = Tmax in Wistar rat brain at 750 mg/kg, po by LC-MS/MS analysis; format: ADME, organism-based; design: dose 750 mg/kg, route oral
[11] = Tmax in Wistar rat lung at 750 mg/kg, po by LC-MS/MS analysis; format: ADME, organism-based; design: dose 750 mg/kg, route oral
[12] = Cmax in Wistar rat testes at 750 mg/kg, po by LC-MS/MS analysis; format: ADME, organism-based, Testis; design: dose 750 mg/kg, route oral
[13] = Elimination rate constant in Wistar rat at 250 mg/kg, iv by HPLC analysis; format: ADME, organism-based; design: dose 250 mg/kg, route intravenous; conditions: Wistar, in vivo, read-out: Ke (converted)
[14] = Drug excretion in Wistar rat feces at 750 mg/kg, po after 18 to 24 hrs by HPLC-UV analysis; format: ADME, organism-based; design: dose 750 mg/kg, route oral; conditions: in vivo
[15] = Cmax in Wistar rat liver at 750 mg/kg, po by LC-MS/MS analysis; format: ADME, organism-based; design: dose 750 mg/kg, route oral
[16] = Drug excretion in Wistar rat urine at 750 mg/kg, po after 24 to 72 hrs by HPLC-UV analysis; format: ADME, organism-based; design: dose 750 mg/kg, route oral; conditions: in vivo
[17] = Clearance in Wistar rat at 250 mg/kg, iv by HPLC analysis; format: ADME, organism-based; design: dose 250 mg/kg, route intravenous; conditions: in vivo
[18] = Half life in Wistar rat at 250 mg/kg, iv by HPLC analysis; format: ADME, organism-based; design: dose 250 mg/kg, route intravenous; conditions: Wistar, in vivo
[19] = Cmax in Wistar rat brain at 750 mg/kg, po by LC-MS/MS analysis; format: ADME, organism-based; design: dose 750 mg/kg, route oral
[20] = Cmax in Wistar rat kidney at 750 mg/kg, po by LC-MS/MS analysis; format: ADME, organism-based; design: dose 750 mg/kg, route oral
Rattus norvegicus [21] = assay: Absorption rate constant in Wistar rat at 250 mg/kg, po by HPLC analysis; format: ADME, organism-based; design: dose 250 mg/kg, route oral; conditions: in vivo
[22] = Cmax in Wistar rat at 250 mg/kg, po by HPLC analysis; format: ADME, organism-based; design: dose 250 mg/kg, route oral; conditions: in vivo
[23] = Drug metabolism in Wistar rat assessed as excretion of 5-hydroxy-2-(4-methoxyphenyl)-4-oxo-4H-chromen-7-yl hydrogen sulfate in urine at 750 mg/kg, po by LC-MS and LC-MS/MS analysis; format: ADME, organism-based; design: dose 750 mg/kg, route oral; conditions: in vivo
[24] = AUC in Wistar rat at 250 mg/kg, po by HPLC analysis; format: ADME, organism-based; design: dose 250 mg/kg, route oral; conditions: plasma
[25] = Tmax in Wistar rat liver at 750 mg/kg, po by LC-MS/MS analysis; format: ADME, organism-based; design: dose 750 mg/kg, route oral
[26] = AUC (0.083 to 4 hrs) in Wistar rat testes at 750 mg/kg, po by LC-MS/MS analysis; format: ADME, organism-based, Testis; design: time 0.083-4 hr, dose 750 mg/kg, route oral; conditions: in vivo
[27] = Drug excretion in Wistar rat feces at 750 mg/kg, po after up to 72 hrs by HPLC-UV analysis; format: ADME, organism-based; design: dose 750 mg/kg, route oral; conditions: faeces, read-out: Drug excretion
[28] = Tmax in Wistar rat kidney at 750 mg/kg, po by LC-MS/MS analysis; format: ADME, organism-based; design: dose 750 mg/kg, route oral
Liver = assay: AUC (0.083 to 4 hrs) in Wistar rat liver at 750 mg/kg, po by LC-MS/MS analysis; format: ADME, organism-based; design: time 0.083-4 hr, dose 750 mg/kg, route oral; conditions: in vivo
[29] = Drug excretion in Wistar rat urine at 750 mg/kg, po after up to 72 hrs by HPLC-UV analysis; format: ADME, organism-based; design: dose 750 mg/kg, route oral; conditions: read-out: Drug excretion
[30] = Oral bioavailability in Wistar rat at 250 mg/kg by HPLC analysis; format: ADME, organism-based; conditions: in vivo
Lung = assay: AUC (0.083 to 4 hrs) in Wistar rat lung at 750 mg/kg, po by LC-MS/MS analysis; format: ADME, organism-based; design: time upper 4 hr, time lower 0.083 hr, dose 750 mg/kg, route oral; conditions: in vivo
[31] = Clearance in Wistar rat at 250 mg/kg, po by HPLC analysis; format: ADME, organism-based; design: dose 250 mg/kg, route oral; conditions: in vivo
[32] = Drug metabolism in Wistar rat assessed as excretion of 5-hydroxy-2-(4-hydroxyphenyl)-7-methoxy-4H-chromen-4-one in urine/feces at 750 mg/kg, po by LC-MS and LC-MS/MS analysis; format: ADME, organism-based; design: dose 750 mg/kg, route oral; conditions: in vivo
[33] = Cmax in Wistar rat lung at 750 mg/kg, po by LC-MS/MS analysis; format: ADME, organism-based; design: dose 750 mg/kg, route oral
[34] = Elimination rate constant in Wistar rat at 250 mg/kg, po by HPLC analysis; format: ADME, organism-based; design: dose 250 mg/kg, route oral; conditions: in vivo, read-out: Ke (converted)
[35] = Half life in Wistar rat at 250 mg/kg, po by HPLC analysis; format: ADME, organism-based; design: dose 250 mg/kg, route oral; conditions: in vivo
[36] = Drug metabolism in Wistar rat assessed as excretion of 7-methoxy-2-(4-methoxyphenyl)-4-oxo-4H-chromen-5-yl hydrogen sulfate in urine at 750 mg/kg, po by LC-MS and LC-MS/MS analysis; format: ADME, organism-based; design: dose 750 mg/kg, route oral; conditions: in vivo
Kidney = assay: AUC (0.083 to 4 hrs) in Wistar rat kidney at 750 mg/kg, po by LC-MS/MS analysis; format: ADME, organism-based; design: time 0.083-4 hr, dose 750 mg/kg, route oral; conditions: in vivo
[37] = Drug metabolism in Wistar rat urine/feces treated with 750 mg/kg, po of 5,7-dimethoxyflavone by LC-MS and LC-MS/MS analysis; format: ADME, organism-based; design: dose 750 mg/kg, route oral; conditions: in vivo

Compound: COc1cc(O)c2c(=O)c(O)c(-c3ccc(O)cc3)oc2c1 [RHAMNOCITRIN]
- Drug metabolism [1]: metabolite_detected

Compound: COc1ccc(-c2oc3cc(OC)cc(O)c3c(=O)c2OC)cc1
- Drug excretion [2]: Active
- Drug excretion [3]: Active

Compound: COc1cc(O)c2c(=O)c(OC)c(-c3ccc(OC)c(O)c3)oc2c1 [AYANIN]
- Drug metabolism [4]: metabolite_detected

Compound: COc1cc(O)c2c(=O)c(O)c(-c3ccc(OC)c(O)c3)oc2c1 [OMBUINE]
- Drug metabolism [4]: metabolite_detected

Compound: COc1ccc(-c2oc3cc(OC)cc(O)c3c(=O)c2O)cc1
- Drug metabolism [1]: metabolite_detected

Compound: COc1ccc(-c2cc(=O)c3c(OC)cc(OC)cc3o2)cc1 [TRIMETHYLAPIGENIN]
- AUC [6]: 276 µg·h/mL
- Drug excretion [2]: Active
- AUC (Brain): 2.5 µg·h/g
- Vd (Rattus norvegicus [7]): 2385.1 mL
- Tmax [8]: 0.85 h
- Tmax [9]: 3.14 h
- Tmax [10]: 3.43 h
- Tmax [11]: 1.76 h
- Cmax [12]: 1100 ng/g
- k el [13]: 8.89e-05 s⁻¹
- Drug excretion [14]: Active
- Cmax [15]: 3010 ng/g
- Drug excretion [16]: Active
- clearance [17]: 0.105 mL/min
- half-life [18]: 4.19 h
- Cmax [19]: 1430 ng/g
- Cmax [20]: 1640 ng/g
- Drug excretion [3]: Active
- ka (Rattus norvegicus [21]): 8.53 h⁻¹
- Cmax [22]: 880 ng/mL
- Drug metabolism [23]: metabolite_detected
- AUC [24]: 6.96 µg·h/mL
- Tmax [25]: 2.64 h
- AUC [26]: 1.96 µg·h/g
- dose excreted at 72 h [27]: 1.76%
- Tmax [28]: 3.43 h
- AUC (Liver): 7.83 µg·h/g
- dose excreted at 72 h [29]: 1.77%
- bioavailability [30]: 1.75%
- AUC (Lung): 1.88 µg·h/g
- CL/F [31]: 5.62 mL/min
- Drug metabolism [32]: metabolite_detected
- Cmax [33]: 1410 ng/g
- k el [34]: 4.17e-05 s⁻¹
- half-life [35]: 5.04 h
- Drug metabolism [36]: metabolite_detected
- AUC (Kidney): 3.01 µg·h/g

Other lines, results leading:

- Drug excretion [2]: Active
- Drug excretion [3]: Active
Compound: COc1cc(O)c2c(=O)cc(-c3ccccc3)oc2c1 [TECHTOCHRYSIN]

- Drug metabolism [5]: metabolite_detected
Compound: COc1ccc(-c2cc(=O)c3c(O)cc(OS(=O)(=O)O)cc3o2)cc1

- Drug metabolism [37]: metabolite_detected
Compound: O=c1cc(-c2ccccc2)oc2cc(O)cc(O)c12 [CHRYSIN]
